Test results published in patent publication US6593299B1, “Compositions and methods for controlling pests” (priority 1999, dated 2003).
Ends that are not written are not given here.

What was measured:
[1] = tested on: trypsin biosynthesis in the midgut of female Aedes aegypti; assay: NPF injected into blood-fed whole female mosquitoes, midgut trypsin biosynthesis; type: in vivo; conditions: whole blood-fed females, injected 0.25 μl at 10^−6 M, midguts assayed 30 hours later
Procedure: To determine whether NPF I and II affect trypsin biosynthesis in the midgut of female Aedes aegypti, females were fed a blood meal and immediately injected with 0.25 μl of the peptide at concentrations of 2.5 μg to 12.5 pg and 30 hours later the midguts were removed and assayed for trypsin biosynthesis (Borovsky et al., 1990 “Mosquito Oostatic Factor: A Novel Decapeptide Modulating Trypsin-Like Enzyme Biosynthesis in the Midgut” FASEB J. 4:3015-3020; Borovsky et al. 1993 “Mass Spectrometry and Characterization of Aedes aegypti Trypsin Modulating Oostatic Factor (TMOF) and its Analog” Insect Biochem. Molec. Biol. 23:703-712). Each experiment was repeated 3 times (5 females per group) and the results are expressed as % inhibition of trypsin biosynthesis±S.E.M. (FIG. 1).

[2] = molecular target: TMOF receptor (mosquito gut receptor) (Aedes aegypti); assay: cell-based or functional assay
Aedes aegypti larvae = assay: Feeding TMOF and analog peptides to mosquito larvae (LD50); type: in vivo; conditions: newly hatched larvae on autoclaved yeast 1 mg/ml, peptide 0 to 5.0 mg/ml, microtiter plates, 7 days
Description: TMOF can traverse the gut epithelium, enter the hemolymph and bind a gut receptor (Borovsky, D. and F. Mahmood (1995) “Feeding the mosquito Aedes aegypti with TMOF and its analogs; effect on trypsin biosynthesis and egg development,” Regulatory Peptides 57:273-281.; Borovsky et al. (1994) “Characterization and localization of mosquito-gut receptors for trypsin modulating oostatic factor using complementary peptide immunochemistry”FASEB J. 8:350-355.). This characteristic permits the testing of TMOF and its analogues by feeding them to mosquito and other pest larvae. To find out if truncated TMOF peptides have an effect on larval growth and development, a series of peptides were synthesized and tested by feeding them to mosquito larvae at concentrations of 0 to 5.0 mg/ml (Table 2). Individual, newly hatched Aedes aegypti larvae were maintained in separate microtiter plate wells on a diet of autoclaved yeast (1 mg/ml). The diet was supplemented with TMOF peptides (Table 2). An identical number of larvae maintained on yeast served as a control. […] All control groups survived and larval growth and development was normal. Since larvae swallow only a small portion of the yeast particles adsorbed the peptides, it is assumed that approximately 1 to 20 ng are taken orally at the high concentrations.

[3] = tested on: fourth instar Heliothis virescens; assay: Feeding TMOF analogs to fourth instar H. virescens: larval weight; type: in vivo; conditions: fourth instar larvae
Procedure: (§1) Several analogues were chosen and were fed to fourth instar Heliothis virescens for seven (7) days and to first instars for fourteen (14) days (Tables 3 and 4). In both cases a reduction in weight gain and trypsin inhibition was noted (Tables 3 and 4).
(§2) Individual first instar and fourth instar larvae of H. virescens were maintained in separate plastic cups and were fed on artificial diet blocks on which different concentrations of TMOF (0 to 1.6 mg) were adsorbed. Larvae were fed for 5 to 14 days and larval weight and trypsin activity were measured at the end of the experimental periods. […] When first instar larvae were fed for 14 days, an 18% and 26% reduction in weight was observed when analogues 15 and 16 were used (Table 4).
Fourth instar larvae were weighed and fed on synthetic food and 0.8 mg of TMOF analogues for 5 days. […]. Results are average of 3 to 10 experiments S.E.M.

TTLE biosynthesis = assay: Feeding TMOF analogs to fourth instar H. virescens: gut trypsin (TTLE) biosynthesis by [3H]DFP; type: in vivo, Heliothis virescens; set-up: Trypsin: unit not given here; conditions: fourth instar larvae, 0.8 mg of analogue, 5 days
[4] = tested on: first instar Heliothis virescens; assay: Feeding first instar H. virescens on TMOF analogs for 14 days; type: in vivo; set-up: Weight Reduction ± S.E.M.: concentration or dose not given beside the values; conditions: first instar larvae fed 14 days
Procedure: as §1, §2

Q: With “Ala-Pro-Ser-Arg-Leu-Arg-Phe-amide (APSRLRF-NH2) [NPF II]” as the substance, how does the “% inhibition of trypsin biosynthesis” value [1] read?
A: The value was 35%.

Q: “NPF I (Ala-Arg-Gly-Pro-Gln-Leu-Arg-Leu-Arg-Phe-amide) (peptide)” was tested. Which inhibition of trypsin biosynthesis (ligated abdomens of blood-fed female Aedes aegypti, 30 h after injection) (% inhibition at 10^-6 M) [2] did it give?
A: Its inhibition of trypsin biosynthesis (ligated abdomens of blood-fed female Aedes aegypti, 30 h after injection) (% inhibition at 10^-6 M) is 54.

Q: YDFAP [14. YDFAP, YDFAP] was tested. Which “LD50 + S.E.M.” value (Aedes aegypti larvae) did it give?
A: Its value is 0.74 ± 0.13 mM.

Q: And the “Weight Gain” value ([3]; 0.8 mg of analogue, 5 days)?
A: Its value is 164 mg.

Q: What about the “Weight mg ± S.E.M. End” value ([3]; synthetic food and 0.8 mg of analogue, after 5 days) of the same substance?
A: Its value is 201 ± 12 mg.

Q: And the “Weight mg ± S.E.M. Start” value ([3]; weight before feeding (baseline))?
A: The value was 37 ± 1.3 mg.

Q: What about the Trypsin (TTLE biosynthesis; guts incubated with [3H]DFP) of the same substance?
A: Its Trypsin is 2.1 ± 0.2.

Q: What about the “Inhibition (trypsin)” value (TTLE biosynthesis; versus control) of the same substance?
A: Its value is 19 ± 1.5%.

Q: And the “Number of Dead Larvae” value [4]?
A: Its value is 1.

Q: And the “Weight ± S.E.M.” value [4]?
A: The value was 121 ± 7 mg.

Q: What about the “Weight Reduction ± S.E.M.” value ([4]; versus control) of the same substance?
A: Its value is 26 ± 1.5%.
